From patent publication US7994326B2 (Northwestern University, priority 2003, dated 2011)

Key:
Type in all cases: biochemical
[1] = target: T1, murine iNOS (Mus musculus, UniProt P29477); test: NOS enzyme inhibitory assay (hemoglobin capture), iNOS; conditions: Table 1a; for Ki: apparent Ki calculated from IC50, Km […], read-out: calc. Ki iNOS; for IC50: murine iNOS, 10 μM L-arginine
T1 construct: made in house; host or cells: E. coli (plasmid pCWiNOS)
Description: (§1) All of the NOS isoforms used were recombinant enzymes overexpressed in E. coli from different sources. Nitric oxide formation from NOS was monitored by the hemoglobin capture assay as described in the literature.
Enzyme inhibitory assay. All of the NOS isoforms used are recombinant enzymes overexpressed in E. coli from different sources.
iNOS expression: An overnight culture of pCWiNOS was used to inoculate (1:100) larger cultures of Terrific Broth media (12 g/L tryptone, 24 g/L yeast extract, 4 mL/L glycerol, 17 mM KH2PO4, and 72 mM K2HPO4) containing 50 μg/mL ampicillin and 34 μg/mL chloramphenicol at 37° C. At an OD600 of ˜0.5, the culture was cooled to 25° C. and induced by the addition of 1 mM IPTG (final concentration). After approximately 24 h of growth at 25° C., the cells were pelleted at 5300×g, transferred to 50 mL conical tubes, and stored at −80° C.
iNOS purification: Cell pellets from 1.0 L of culture were resuspended in sonication buffer (50 mM Hepes, pH 7.4, 10% glycerol, 10 μg/mL benzamidine, 5 μg/mL leupeptin, 0.2 mM of PMSF, and 1 μg/mL each of pepstatin, chymostatin, and antipain) and lysed by sonication. Centrifugation for 20 min at 13000×g yielded supernatant which contained iNOS active enzyme. iNOS supernatant was loaded onto 1 g of a 2′,5′-ADP-Sepharose 4B resin column. The column was then washed with 20 ml iNOS purification buffer (10 mM K2HPO4, 10% glycerol, 0.5 mM L-arginine, pH 7.4) and 10 μM BH4. Inducible NOS was eluted with 30 ml iNOS purification buffer supplemented with 10 mM 2′(3′)-AMP, 10 μM BH4, and 0.3 M NaCl. The eluent was concentrated to 5 ml by ultrafiltration. The above concentration operation was repeated three times more with 10 ml Hepes buffer supplemented with 10 μM BH4, to give purified inducible NOS.
(§2) Nitric oxide formation from NOS was monitored by the hemoglobin capture assay as described previously. (Hevel, J. M.; Marletta, M. A. Nitric Oxide Synthase Assays. Methods Enzymol. 1994, […], 250-258).
(§3) The selectivity of an inhibitor is defined as the ratio of the respective Ki values.

[2] = target: T2, rat nNOS (Rattus norvegicus, UniProt P29476); test: NOS enzyme inhibitory assay (hemoglobin capture), nNOS; conditions: Table 1a; for Selectivity n/i: Ki(iNOS)/Ki(nNOS); for Ki: apparent Ki calculated from IC50, Km […], read-out: calc. Ki nNOS; for IC50: rat nNOS, 10 μM L-arginine
T2 construct: made in house; host or cells: E. coli (plasmid pCWnNOS)
Method: as §1
After approximately 48 h of post-induction incubation in the dark at 25° C. the cells were pelleted at 5300×g, transferred to 50 mL conical tubes, and stored at −80° C.
nNOS purification: Cell pellets from 2.0 L of culture were resuspended in sonication Buffer A (50 mM Tris Base Buffer, pH 8.0, 10% glycerol), 2 mg/ml lysozyme. 0.5 mM L-arginine. 1 mM EDTA, 0.1 mM PMSF, 1 µg/ml antipain, and 1 μM each of leupeptin, […], and […]) and lysed by sonication. Centrifugation for 1 h at 100000×g yielded supernatant which contained nNOS active enzyme. The supernatant was brought to 2 mM CaCl2 and the protein was loaded onto a 15 ml calmodulin-Sepharose column equilibrated with Buffer A containing 2 mM CaCl2. The column was washed with 100 ml Buffer B (50 mM Hepes, 5 mM DTT, and […]) containing 2 mM CaCl2, 0.5 mM L-arginine, and 10 μM BH4, and eluted with 30 ml Buffer B supplemented with 0.3 M NaCl, 5 mM EGTA, 0.5 mM L-arginine, and 10 μM BH4. The protein was then loaded onto a 5 ml 2′,5′-ADP-Sepharose column equilibrated with Buffer B supplemented with 0.3 M NaCl, 0.5 mM L-arginine, and 10 μM BH4. The column was washed with 25 ml Buffer B containing 0.5 mM L-arginine and 10 μM BH4, and then 25 ml of Buffer B only supplemented with 10 μM BH4 (without L-arginine). Neuronal NOS was eluted with 20 ml Buffer B supplemented with 10 mM 2′(3′)-AMP, 10 μM BH4 and 0.3 M NaCl. The 20 ml eluent was then concentrated to 5 ml by ultrafiltration. The above concentration operation was repeated twice more with 10 ml Buffer B supplemented with 10 µM BH4 to give the purified neuronal NOS.
Nitric oxide formation from NOS was monitored by the hemoglobin capture assay as described previously.
as §3

[3] = target: T3, bovine eNOS (Bos taurus, UniProt P29473); test: NOS enzyme inhibitory assay (hemoglobin capture), eNOS; conditions: Table 1b; read-out: Ki eNOS
T3 construct: made in house; host or cells: E. coli (plasmid Bov-eNOSpCW)
Method: as §1
Expression of bovine eNOS: An overnight culture of Bov-eNOSpCW was used to inoculate 0.5 liter (in a 2.8-liter Fernbach flask) of modified TB (20 g of yeast extract, 10 g of bacto-tryptone, 2.65 g of KH2PO4, 4.33 g of Na2HPO4 and 4 ml of glycerol per liter) containing ampicillin ([…]) and chloramphenicol ([…]). The cultures were grown to an OD600 of z0.8 at 22° C. (200 rpm) and induced with 0.5 mM IPTG. One hour before IPTG induction, d-aminolevulinic acid (0.5 mM final) was added and, at the time of IPTG induction, riboflavin ([…]) and ATP (1 mM final) were also added. After induction, the flasks were kept in the dark at 22° C. (200 rpm). The cells were harvested 48 h after induction, and the cell pellet was frozen at −80° C. until purification was carried out.
Purification of bovine eNOS. The purification was typically carried out with eNOS from 2 liters of E. coli culture. The eNOS protein was purified using a modification of the published protocol for nNOS (14). The cells were resuspended in buffer C [50 mM Tris-Cl, pH 7.8, 1 mM EDTA, 1 mM DTT, 10% glycerol (v/v), 150 mM NaCl, 0.1 mM phenylmethylsulfonyl fluoride, […]], lysed by pulsed sonication and then centrifuged to sediment the cell debris. The supernatant was applied to a 2′,5′-ADP Sepharose 4B column equilibrated in buffer D [50 mM Tris-Cl, pH 7.8, 0.1 mM EDTA, 0.1 mM dithiothreitol, 150 mM NaCl, 10% glycerol (v/v)]. The column was washed with 20 column volumes of buffer B and again with 20 column volumes of buffer B containing 600 mM NaCl. Finally, protein was eluted with buffer B containing 600 mM NaCl and 5 mM 2′-AMP. The fractions were screened for absorption in the Soret region (A400) and hemoprotein-containing fractions were pooled and concentrated (Centriprep 50, Amicon). Repeated dilution/concentration [50 mM Tris-Cl, pH 7.8, 0.1 mM EDTA, 0.1 mM dithiothreitol, 10% glycerol (vol/vol)] was used to reach a final concentration of 150 mM NaCl and commensurately reduce the 2′-AMP content. […] The purified eNOS is stored in the presence of 1 mM L-arginine.
eNOS washing: eNOS contains a significant amount of L-arginine, which will interfere with the enzyme assay. The L-arginine can be removed by several dilution and concentration steps using an Amico concentrator. The dilution buffer is 10 ml Tris-HCl 50 mM containing 0.1 mM EDTA, 400 mM NaCl, 10% glycerol and 1 mM beta-mercaptoethanol. The above dilution and concentration operation was repeated three times to give purified eNOS.
as §2, §3

NCCN1CC(Cc2cccc(N)n2)C(NCCCO)C1 (racemic) [Compound P-8]
Ki [1]: 652 µM
IC50 [1]: 1440 µM

NCCN1C[C@H](Cc2cccc(N)n2)[C@H](NCCCO)C1 (racemic) [Compound P-10]
Ki [1]: 1250 µM
IC50 [1]: 2760 µM

Cl.Cl.Nc1cccc(CC2CN(Cc3ccccc3)CC2O)n1 (racemic) [Compound P-1]
Selectivity n/i [2]: 11.71
Ki [2]: 78.5 µM
IC50 [2]: 682 µM
Ki [1]: 919 µM
IC50 [1]: 2030 µM

Cc1cc(N)nc(CC2CNCC2N(C)CCNCc2ccc(Cl)cc2)c1 (racemic) [Compound P-64]
Ki [3]: 125 µM

Cl.Cl.Cl.NCCN1C[C@H](Cc2cccc(N)n2)[C@@H](O)C1 (racemic) [Compound P-6]
Selectivity n/i [2]: 8.41
Ki [2]: 12.4 µM
IC50 [2]: 108 µM
Ki [1]: 105 µM
IC50 [1]: 231 µM

Cl.Cl.Cl.Cl.Nc1cccc(CC2CNCC2NCC2CCCN2)n1 (stereo not drawn) [Compound P-24]
Selectivity n/i [2]: 21.15
Ki [2]: 14.5 µM
IC50 [2]: 126 µM
Ki [1]: 306 µM
IC50 [1]: 674 µM

Cl.Cl.Cl.Cl.NCCN1CC(Cc2cccc(N)n2)C(NCCCc2ccccc2)C1 (racemic) [Compound P-7]
Selectivity n/i [2]: 109.99
Ki [2]: 3.98 µM
IC50 [2]: 34.6 µM
Ki [1]: 438 µM
IC50 [1]: 965 µM

Nc1cccc(C[C@H]2CNC[C@H]2NCCCO)n1 (racemic) [Compound P-28]
Ki [1]: 143 µM
IC50 [1]: 315 µM

Cl.Cl.Cl.Cl.Nc1cccc(CC2CNCC2NCC2CCCN2)n1 (stereo not drawn) [Compound P-40]
Selectivity n/i [2]: 23.95
Ki [2]: 3.44 µM
IC50 [2]: 29.9 µM
Ki [1]: 82.4 µM
IC50 [1]: 182 µM

Cl.Cl.Cl.Cl.Nc1cccc(CC2CNCC2NCC2CCCN2)n1 (stereo not drawn) [Compound P-23]
Selectivity n/i [2]: 9.30
Ki [2]: 11.2 µM
IC50 [2]: 96.9 µM
Ki [1]: 104 µM
IC50 [1]: 229 µM

Nc1cccc(CC2CNCC2NCCCO)n1 (racemic) [Compound P-13]
Ki [1]: 234 µM
IC50 [1]: 515 µM

Cl.Cl.Cl.Cl.Nc1cccc(CC2CNCC2NCC2CCCN2)n1 (stereo not drawn) [Compound P-25]
Selectivity n/i [2]: 7.58
Ki [2]: 2.44 µM
IC50 [2]: 21.2 µM
Ki [1]: 18.5 µM
IC50 [1]: 40.8 µM

Cl.Cl.Cl.Cl.Nc1cccc(C[C@@H]2CNC[C@@H]2NC[C@@H]2CCCN2)n1 [Compound P-41]
Selectivity n/i [2]: 4.67
Ki [2]: 5.66 µM
IC50 [2]: 49.2 µM
Ki [1]: 26.4 µM
IC50 [1]: 58.3 µM

Cl.Cl.Cl.Cl.NCCNC1CC(N)CC1Cc1cccc(N)n1 (racemic) [Compound P-44]
Selectivity n/i [2]: 21.02
Ki [2]: 2.47 µM
IC50 [2]: 21.5 µM
Ki [1]: 51.9 µM
IC50 [1]: 114 µM

Cl.Cl.Cl.Cl.Nc1cccc(C[C@H]2CNC[C@H]2NC[C@H]2CCCN2)n1 [Compound P-42]
Selectivity n/i [2]: 31.97
Ki [2]: 2.19 µM
IC50 [2]: 19 µM
Ki [1]: 70 µM
IC50 [1]: 154 µM

Cl.Cl.Cl.Cl.NCCNC1CC(N)CC1Cc1cccc(N)n1 (racemic) [Compound P-45]
Selectivity n/i [2]: 15.51
Ki [2]: 4.61 µM
IC50 [2]: 40.1 µM
Ki [1]: 71.5 µM
IC50 [1]: 158 µM

Cl.Cl.Cl.Nc1cccc(C[C@H]2CN(Cc3ccccc3)C[C@H]2NCCCc2ccccc2)n1 (racemic) [Compound P-4]
Selectivity n/i [2]: 12.71
Ki [2]: 47.9 µM
IC50 [2]: 417 µM
Ki [1]: 609 µM
IC50 [1]: 1340 µM

Cl.Cl.Cl.Cl.Nc1cccc(C[C@@H]2CNC[C@H]2NC[C@H]2CCCN2)n1 [Compound P-26]
Selectivity n/i [2]: 13.82
Ki [2]: 12.3 µM
IC50 [2]: 107 µM
Ki [1]: 170 µM
IC50 [1]: 375 µM

Cl.Cl.Cl.Nc1cccc(C[C@H]2CN(Cc3ccccc3)C[C@@H]2NCCCc2ccccc2)n1 (racemic) [Compound P-2]
Selectivity n/i [2]: 4.3
Ki [2]: 14 µM
IC50 [2]: 122 µM
Ki [1]: 60.1 µM
IC50 [1]: 132 µM

Cl.Cl.Cl.Nc1cccc(C[C@H]2CN(Cc3ccccc3)C[C@@H]2NCCCO)n1 (racemic) [Compound P-3]
Selectivity n/i [2]: 9.19
Ki [2]: 190 µM
IC50 [2]: 1650 µM
Ki [1]: 1750 µM
IC50 [1]: 3860 µM

Cl.Cl.Cl.Nc1cccc(CC2CN(Cc3ccccc3)CC2NCCCO)n1 (racemic) [Compound P-5]
Selectivity n/i [2]: 8.27
Ki [2]: 305 µM
IC50 [2]: 2650 µM
Ki [1]: 2520 µM
IC50 [1]: 5560 µM

Cl.Cl.Cl.Cl.NCCN1CC(Cc2cccc(N)n2)C(NCCCc2ccccc2)C1 (racemic) [Compound P-9]
Selectivity n/i [2]: 10.28
Ki [2]: 28.6 µM
IC50 [2]: 249 µM
Ki [1]: 295 µM
IC50 [1]: 649 µM

Cl.Cl.Cl.Cl.Nc1cccc(C[C@@H]2CNC[C@@H]2NC[C@H]2CCCN2)n1 [Compound P-43]
Selectivity n/i [2]: 9.22
Ki [2]: 4.55 µM
IC50 [2]: 39.5 µM
Ki [1]: 42 µM
IC50 [1]: 92.5 µM
